In brackets after ≈: the same amount, converted by molar mass.
Assays:
[1] = Protein binding in rat plasma by LC-MS analysis based ultracentrifugation assay; type: ADME, cell-free; details: read-out: PPB (converted)
[2] = biological target: T1, Voltage-gated inwardly rectifying potassium channel KCNH2 (Homo sapiens, UniProt Q12809); assay: Inhibition of human ERG by patch clamp assay
physchem [3] = details: fasted state simulated gastric fluid, pH 1.6
Plasmodium falciparum [4] = assay: microbe, parasite or virus in culture; details: 3D7, 72 h
[5] = simulated gi fluid, pH 5.8
[6] = biological target: T1, Voltage-gated inwardly rectifying potassium channel KCNH2; assay: Inhibition of human ERG by IonWorks patch clamp electrophysiology assay
[7] = AUC (0 to infinity) in Swiss mouse at 10 mg/kg, po by LC-MS analysis; type: ADME, organism-based; parameters: dose 10 mg/kg, route oral, time infinity; details: in vivo
[8] = Inhibition of yeast DHODH transformed in Plasmodium falciparum D10 in presence of 10 uM proguanil; parameters: species or system Saccharomyces cerevisiae
[9] = Clearance in Sprague-Dawley rat plasma at […], iv by LC-MS analysis; type: ADME, organism-based; details: in vivo
[10] = Cmax in Swiss mouse at 10 mg/kg, po by LC-MS analysis; type: ADME, organism-based; parameters: dose 10 mg/kg, route oral; details: in vivo
Plasmodium falciparum [11] = assay: Antimalarial activity against Plasmodium falciparum R1BC1A harboring DHODH L531F mutant measured after 72 hrs by SYBR Green dye based fluorescence assay; type: functional, organism-based
Albumin [12] = biological target: T2, Albumin (Homo sapiens, UniProt P02768); assay: Binding affinity to albumin (unknown origin) in ALBUMAX medium; type: ADME; details: read-out: PB (converted)
[13] = Protein binding in human liver microsomes by LC-MS analysis based ultracentrifugation assay; type: ADME, Microsome; details: read-out: PB (converted)
HepG2 = assay: Cytotoxicity against human HepG2 cells assessed as reduction in cell viability; type: cell-based
Plasmodium falciparum [14] = system: Plasmodium falciparum
[15] = Intrinsic clearance in human liver microsomes assessed as per mg protein; type: ADME, Microsome
[16] = fAUC in Plasmodium falciparum 3D70087/N9 infected po dosed NOD-SCID IL2Rgamma null mouse blood administered once daily for 4 days; type: ADME, organism-based; details: in vivo, 96 h
Plasmodium falciparum [17] = assay: Antimalarial activity against Plasmodium falciparum R1AC1B harboring DHODH C276F mutant measured after 72 hrs by SYBR Green dye based fluorescence assay; type: functional, organism-based
[18] = Cmax in Sprague-Dawley rat at 18.8 mg/kg, po by LC-MS analysis; type: ADME, organism-based; parameters: dose 18.8 mg/kg, route oral; details: in vivo
in vivo [19] = details: Swiss, mouse, po, 10 mg/kg
Plasmodium falciparum [20] = assay: animal or person; details: for EC50: 3D70087/N9, 96 h
[21] = Protein binding in DMEM medium containing 10% fetal calf serum by LC-MS analysis based ultracentrifugation assay; type: ADME, cell-free, Bos taurus; details: cattle, serum
[22] = Intrinsic clearance in mouse liver microsomes assessed as per mg protein; type: ADME, Microsome
physchem [23] = details: PBS, pH 7.4
Albumin [24] = biological target: T2, Albumin; assay: Binding affinity to albumin (unknown origin) by chromatographic method; type: ADME; details: for fraction unbound: albumin, read-out: PB (converted)
[25] = Inhibition of N-terminal His6-tagged Plasmodium falciparum DHODH expressed in Escherichia coli BL21(DE3) cells using L-DHO as substrate by DCIP dye based assay
[26] = Apparent half life in Swiss mouse at 10 mg/kg, po by LC-MS analysis; type: ADME, organism-based; details: in vivo, read-out: t1/2(app) (converted)
in vivo [27] = details: Sprague-Dawley, rat, po
[28] = Oral bioavailability in Swiss mouse at 10 mg/kg by LC-MS analysis; type: ADME, organism-based; details: in vivo
physchem [29] = details: fasted state simulated intestinal fluid, pH 6.5
Plasmodium falciparum [30] = type: functional, organism-based; details: R10C1B, 72 h
Plasmodium falciparum [31] = type: functional, organism-based; details: R2B, 72 h
[32] = Intrinsic clearance in liver microsomes assessed as per mg protein; details: read-out: CLH
L1210 = assay: Cytotoxicity against mouse L1210 cells assessed as reduction in cell viability; type: cell-based
Plasmodium falciparum [33] = assay: Antimalarial activity against Plasmodium falciparum 3D70087/N9 infected in po dosed NOD-SCID IL2Rgamma null mouse administered BID for 4 days by flow cytometric analysis; type: functional; details: 3D70087/N9, po, 96 h
Plasmodium falciparum [34] = assay: microbe, parasite or virus in culture; details: 1D3, 72 h
[35] = biological target: T3, Dihydroorotate dehydrogenase (quinone), mitochondrial (Homo sapiens, UniProt Q02127)
[36] = biological target: Dihydroorotate dehydrogenase (quinone), mitochondrial (Rattus norvegicus, UniProt Q63707)
[37] = biological target: Dihydroorotate dehydrogenase (quinone), mitochondrial (Mus musculus, UniProt O35435)
[38] = biological target: T3, Dihydroorotate dehydrogenase (quinone), mitochondrial; assay: Inhibition of C-terminal His6-tagged human DHODH (30 to 396 residues) expressed in Escherichia coli BL21(DE3) cells using L-DHO as substrate after 20 mins by 2,6-dichloroindophenol reduction based assay
[39] = Inhibition of C-terminal His6-tagged Plasmodium falciparum DHODH expressed in Escherichia coli BL21(DE3) cells using L-DHO as substrate after 20 mins by 2,6-dichloroindophenol reduction based assay
physchem [40] = details: octanol/water, pH 7.4
Plasmodium falciparum [41] = assay: Antimalarial activity against Plasmodium falciparum 3D70087/N9 infected in NOD-SCID IL2Rgamma null mouse assessed as blood AUC level require to show 90% reduction in parasitemia administered administered once daily for 4 days; type: functional, organism-based

Dihydroorotate dehydrogenase (quinone), mitochondrial (Mus musculus, UniProt O35435), sequence (O35435 whole entry, the tested form may be a part): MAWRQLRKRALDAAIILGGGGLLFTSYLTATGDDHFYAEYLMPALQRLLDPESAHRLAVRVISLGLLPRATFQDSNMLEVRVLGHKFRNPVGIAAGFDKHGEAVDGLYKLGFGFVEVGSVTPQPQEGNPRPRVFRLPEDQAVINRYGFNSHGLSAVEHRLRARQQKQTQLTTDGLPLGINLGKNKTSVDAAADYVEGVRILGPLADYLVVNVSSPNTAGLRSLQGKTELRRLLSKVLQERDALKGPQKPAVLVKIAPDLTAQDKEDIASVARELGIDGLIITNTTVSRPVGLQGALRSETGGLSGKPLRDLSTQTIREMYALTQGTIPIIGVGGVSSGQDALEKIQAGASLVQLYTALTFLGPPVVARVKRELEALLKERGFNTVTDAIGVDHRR
T2 sequence (P02768 whole entry): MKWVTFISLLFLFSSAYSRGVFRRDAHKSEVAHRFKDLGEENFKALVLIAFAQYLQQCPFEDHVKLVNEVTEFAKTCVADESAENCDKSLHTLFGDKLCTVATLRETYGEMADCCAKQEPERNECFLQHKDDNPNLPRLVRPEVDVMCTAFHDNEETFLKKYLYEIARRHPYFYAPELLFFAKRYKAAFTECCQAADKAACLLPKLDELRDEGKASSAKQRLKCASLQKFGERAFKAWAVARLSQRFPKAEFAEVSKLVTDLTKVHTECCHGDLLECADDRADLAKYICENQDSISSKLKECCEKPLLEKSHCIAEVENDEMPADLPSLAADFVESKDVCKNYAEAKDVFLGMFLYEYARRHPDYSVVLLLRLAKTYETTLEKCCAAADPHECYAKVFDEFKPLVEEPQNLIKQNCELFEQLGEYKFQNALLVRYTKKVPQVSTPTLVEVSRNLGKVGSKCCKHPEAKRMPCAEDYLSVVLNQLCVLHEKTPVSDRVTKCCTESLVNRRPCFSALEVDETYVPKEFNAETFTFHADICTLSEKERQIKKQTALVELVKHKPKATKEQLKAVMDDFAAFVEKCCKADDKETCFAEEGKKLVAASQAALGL
T3 sequence (Q02127 whole entry): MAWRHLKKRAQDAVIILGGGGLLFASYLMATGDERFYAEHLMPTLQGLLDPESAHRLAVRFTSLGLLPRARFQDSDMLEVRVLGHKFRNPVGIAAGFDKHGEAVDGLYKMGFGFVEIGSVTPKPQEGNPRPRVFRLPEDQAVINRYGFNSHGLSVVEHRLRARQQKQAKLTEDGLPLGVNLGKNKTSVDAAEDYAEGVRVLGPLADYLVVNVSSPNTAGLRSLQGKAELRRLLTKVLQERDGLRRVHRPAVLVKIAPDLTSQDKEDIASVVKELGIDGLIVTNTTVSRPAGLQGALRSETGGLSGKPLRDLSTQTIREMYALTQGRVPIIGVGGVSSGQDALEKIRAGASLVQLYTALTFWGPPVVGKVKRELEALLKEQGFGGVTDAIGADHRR
Dihydroorotate dehydrogenase (quinone), mitochondrial (Rattus norvegicus, UniProt Q63707), sequence (Q63707 whole entry): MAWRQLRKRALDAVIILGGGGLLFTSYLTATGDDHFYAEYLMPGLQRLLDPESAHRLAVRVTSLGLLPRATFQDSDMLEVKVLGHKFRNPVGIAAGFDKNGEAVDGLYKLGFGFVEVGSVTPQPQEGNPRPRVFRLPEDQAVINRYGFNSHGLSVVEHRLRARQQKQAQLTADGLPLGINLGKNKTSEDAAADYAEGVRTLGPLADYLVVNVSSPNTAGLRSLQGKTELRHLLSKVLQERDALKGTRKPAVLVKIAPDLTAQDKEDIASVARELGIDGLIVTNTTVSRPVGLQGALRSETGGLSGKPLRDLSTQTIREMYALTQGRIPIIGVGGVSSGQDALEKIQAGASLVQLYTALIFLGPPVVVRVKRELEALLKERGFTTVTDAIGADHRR
T1 sequence (Q12809 whole entry): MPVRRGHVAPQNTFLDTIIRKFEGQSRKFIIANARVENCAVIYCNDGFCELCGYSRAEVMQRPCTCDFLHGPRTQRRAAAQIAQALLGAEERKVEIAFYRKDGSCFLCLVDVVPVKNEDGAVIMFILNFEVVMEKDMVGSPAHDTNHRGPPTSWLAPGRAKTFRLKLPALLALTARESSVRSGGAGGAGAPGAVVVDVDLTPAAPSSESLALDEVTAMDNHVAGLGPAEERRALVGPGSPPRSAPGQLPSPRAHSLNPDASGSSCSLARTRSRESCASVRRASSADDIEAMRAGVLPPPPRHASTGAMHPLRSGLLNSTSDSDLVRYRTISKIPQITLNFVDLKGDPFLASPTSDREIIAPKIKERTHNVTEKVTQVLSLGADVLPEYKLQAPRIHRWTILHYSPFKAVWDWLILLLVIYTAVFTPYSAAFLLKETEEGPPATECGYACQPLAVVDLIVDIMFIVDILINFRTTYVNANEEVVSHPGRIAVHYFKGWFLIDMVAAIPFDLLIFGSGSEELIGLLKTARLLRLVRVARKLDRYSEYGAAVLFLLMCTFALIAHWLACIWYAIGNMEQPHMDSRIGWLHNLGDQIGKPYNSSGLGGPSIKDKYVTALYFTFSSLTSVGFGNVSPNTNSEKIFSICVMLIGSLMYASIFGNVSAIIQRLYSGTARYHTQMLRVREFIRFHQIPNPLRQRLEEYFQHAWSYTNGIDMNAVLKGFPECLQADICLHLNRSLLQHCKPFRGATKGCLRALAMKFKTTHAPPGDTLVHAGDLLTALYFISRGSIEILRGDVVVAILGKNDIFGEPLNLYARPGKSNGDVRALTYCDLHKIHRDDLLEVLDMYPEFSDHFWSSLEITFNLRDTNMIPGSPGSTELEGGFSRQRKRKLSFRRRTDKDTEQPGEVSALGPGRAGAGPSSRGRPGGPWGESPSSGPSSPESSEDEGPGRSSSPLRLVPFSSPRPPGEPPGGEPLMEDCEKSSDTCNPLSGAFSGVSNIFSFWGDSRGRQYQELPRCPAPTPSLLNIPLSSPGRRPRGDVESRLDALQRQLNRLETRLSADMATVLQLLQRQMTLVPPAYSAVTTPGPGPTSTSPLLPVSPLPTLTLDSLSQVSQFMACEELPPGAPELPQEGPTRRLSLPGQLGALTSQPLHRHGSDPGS

Q: With `Cc1cc(Nc2ccc(S(F)(F)(F)(F)F)cc2)n2nc(C(C)(F)F)nc2n1` [DSM-265] as the compound, how does the fraction unbound [1] read?
A: 0.03

Q: What about the EC50 [2] of the same compound?
A: 1600 nM

Q: And the solubility (physchem [3])?
A: 6.8 µg/mL (≈ 16.4 µM)

Q: What about the EC50 (Plasmodium falciparum [4]) of the same compound?
A: 6 nM

Q: And the solubility [5]?
A: 27.6 µg/mL (≈ 66.5 µM)

Q: And the EC50 [6]?
A: 7000 nM

Q: And the AUC(0-inf) [7]?
A: 29.7 µM·h

Q: What about the EC50 [8] of the same compound?
A: > 20000 nM

Q: And the clearance [9]?
A: 6.5 mL/min/kg

Q: What about the Cmax [10] of the same compound?
A: 3.94 µM

Q: What about the EC50 (Plasmodium falciparum [11]) of the same compound?
A: 80 to 110 nM

Q: What about the fraction unbound (Albumin [12]) of the same compound?
A: 0.169

Q: What about the fraction unbound [13] of the same compound?
A: 0.283

Q: And the CC50 (HepG2)?
A: > 50000 nM

Q: What about the fEC50 (Plasmodium falciparum [14]) of the same compound?
A: 0.001 µM

Q: And the microsomal CLint [15]?
A: < 7 µL/min/mg

Q: And the fAUC [16]?
A: 15 to 23 ng·h/mL

Q: And the EC50 (Plasmodium falciparum [17])?
A: 170 nM

Q: What about the Cmax [18] of the same compound?
A: 3.95 µM

Q: And the Tmax (in vivo [19])?
A: 1 to 2 h

Q: And the EC50 (Plasmodium falciparum [20])?
A: 6 nM

Q: And the PB [21]?
A: 78.5%

Q: And the microsomal CLint ([22]; liver microsomes, read-out: CLH)?
A: 7 to 8 µL/min/mg

Q: What about the solubility (physchem [23]) of the same compound?
A: 2 µg/mL (≈ 4.82 µM)

Q: What about the PB (Albumin [24]; isolated protein) of the same compound?
A: 97.4%

Q: And the IC50 [25]?
A: 30 nM

Q: And the half-life [26]?
A: 2.4 h

Q: What about the Tmax (in vivo [27]) of the same compound?
A: 3.3 h

Q: What about the bioavailability [28] of the same compound?
A: 61%

Q: What about the solubility (physchem [29]) of the same compound?
A: 5.1 µg/mL (≈ 12.3 µM)

Q: What about the EC50 (Plasmodium falciparum [30]) of the same compound?
A: 120 to 150 nM

Q: What about the EC50 (Plasmodium falciparum [31]) of the same compound?
A: 74 to 150 nM

Q: What about the microsomal CLint [32] of the same compound?
A: < 7 µL/min/mg

Q: What about the CC50 (L1210) of the same compound?
A: > 50000 nM

Q: What about the ED90 (Plasmodium falciparum [33]) of the same compound?
A: 3 mg/kg/day

Q: And the EC50 (Plasmodium falciparum [34])?
A: 23 nM

Q: With `CCOC(=O)c1[nH]c(C)c(Cc2ccc(OC)cc2)c1C` as the compound, how does the EC50 (Plasmodium falciparum [4]) read?
A: 590 nM

Q: And the IC50 [35]?
A: > 100000 nM

Q: And the IC50 [36]?
A: > 100000 nM

Q: And the IC50 [25]?
A: 520 nM

Q: And the IC50 [37]?
A: > 100000 nM

Q: Which results are given for `Cc1nc2cc(OC(F)(F)F)ccc2n1-c1ccc(C(=O)NC2CC2)s1`?
A: EC50 (Plasmodium falciparum [4]): 7 nM; IC50 [38]: > 30000 nM; IC50 [39]: 22 nM

Q: Which EC50 (Plasmodium falciparum [4]) does the source give for `CCOC(=O)c1[nH]c(C)c(Cc2ccc(C(F)(F)F)nc2)c1C` here?
A: 9.2 nM

Q: And the IC50 [35]?
A: > 100000 nM

Q: What about the microsomal CLint [15] of the same compound?
A: 286 µL/min/mg

Q: What about the IC50 [36] of the same compound?
A: > 100000 nM

Q: And the microsomal CLint ([22]; microsomes)?
A: 779 µL/min/mg

Q: What about the fraction unbound (Albumin [24]) of the same compound?
A: 0.064

Q: And the IC50 [37]?
A: > 100000 nM

Q: And the logD (physchem [40])?
A: 3.7

Q: For `CCOC(=O)c1[nH]c(C)c(Cc2ccc(C(F)(F)F)cc2)c1C`, which EC50 (Plasmodium falciparum [4]) is on record?
A: 61 to 71 nM

Q: And the IC50 [35]?
A: > 100000 nM

Q: And the IC50 [36]?
A: > 100000 nM

Q: What about the IC50 [37] of the same compound?
A: > 100000 nM

Q: Which results are given for `Cc1c(Cc2ccc(C(F)(F)F)nc2)c[nH]c1C(=O)N1CC(F)(F)C1`?
A: EC50 (Plasmodium falciparum [4]): 29 nM; IC50 [35]: > 100000 nM; microsomal CLint [15]: 21 µL/min/mg; IC50 [36]: > 100000 nM; microsomal CLint ([22]; microsomes): 94 µL/min/mg; fraction unbound (Albumin [24]): 0.251; IC50 [25]: 33 nM; IC50 [37]: > 100000 nM; logD (physchem [40]): 3.3

Q: Which AUCED90 (Plasmodium falciparum [41]) does the source give for `Cc1cc(Nc2ccc(C(F)(F)F)nc2)n2nc(C(C)(F)F)nc2n1` here?
A: 12.9 µg·h/mL

Q: What about the fEC50 (Plasmodium falciparum [14]) of the same compound?
A: 0.007 µM

Q: What about the fAUC [16] of the same compound?
A: 250 ng·h/mL

Q: And the EC50 (Plasmodium falciparum [20])?
A: 14 nM

Q: And the ED90 (Plasmodium falciparum [20]; 3D70087/N9, in Mus musculus, po, 96 h)?
A: 2.6 mg/kg/day

Q: Which results are given for `Cc1c(Cc2ccc(C(F)(F)F)cc2Cl)c[nH]c1C(=O)NC1CC1`?
A: EC50 (Plasmodium falciparum [4]): 20 nM; IC50 [35]: > 100000 nM; microsomal CLint [15]: 14 µL/min/mg; microsomal CLint ([22]; microsomes): 264 µL/min/mg; fraction unbound (Albumin [24]): 0.019; IC50 [25]: 17 nM; logD (physchem [40]): 4.1

Q: With `CCNC(=O)c1[nH]c(C)c(Cc2ccc(C(F)(F)F)nc2)c1C` as the compound, how does the EC50 (Plasmodium falciparum [4]) read?
A: 33 nM

Q: And the IC50 [35]?
A: > 100000 nM

Q: What about the microsomal CLint [15] of the same compound?
A: 70 µL/min/mg

Q: And the microsomal CLint ([22]; microsomes)?
A: 54 µL/min/mg

Q: And the fraction unbound (Albumin [24])?
A: 0.229

Q: And the IC50 [25]?
A: 54 nM

Q: What about the logD (physchem [40]) of the same compound?
A: 2.8

Q: Which results are given for `Cc1[nH]c(C(=O)NC2CC2)c(C)c1Oc1ccc(C(F)(F)F)nc1`?
A: EC50 (Plasmodium falciparum [4]): 290 nM; IC50 [35]: > 100000 nM; microsomal CLint [15]: 8 µL/min/mg; microsomal CLint ([22]; microsomes): 22 µL/min/mg; fraction unbound (Albumin [24]): 0.573; IC50 [25]: 800 nM; logD (physchem [40]): 1.7
